Like-named read-outs stand apart in the source and are kept apart here.
Experiments:
colorectal adenomas = system: colorectal adenomas
Source text: Dartmouth was the coordinating center and the University of Minnesota was the pathology center. Human subjects committees at each center approved the study protocol; an independent safety and data monitoring committee reviewed the study semi-annually.
Staff at each clinical center monitored colonoscopy and pathology records at associated endoscopy units to identify patients with at least one histologically-confirmed large bowel adenoma removed within three months of recruitment, and with the entire large bowel mucosa subsequently examined and judged free of remaining polyps.
(§1) We reviewed data from 2,918 apparently eligible patients. […] The trial was double-blind; neither subjects nor study staff were told the subjects' treatment assignments.
Subjects received two follow-up colonoscopies as part of their routine clinical care, generally by the same physician who conducted the qualifying exam. The first follow-up examination was planned for approximately one year after the qualifying colonoscopy (about nine months after randomization), and a second follow-up examination was planned for thirty-six months after that. Large bowel endoscopy was otherwise discouraged unless clinically indicated (e.g., for rectal bleeding). Follow-up examinations were considered “adequate” if the entire large bowel mucosa was visualized, and no polyps remained at the end of the procedure. We designated the time from randomization to the first follow-up exam as the first study interval, and the period after the first follow-up exam up to (and including) the second follow-up colonoscopy as the second study interval.
At each colonoscopy, the endoscopist recorded the size and location of all mucosal lesions, using standard clinical technique. […] In cases of disagreement, we accepted the study pathologist's diagnosis.
The primary endpoint of the trial was the proportion of subjects having at least one adenoma detected during the second study interval, i.e., after the first follow-up colonoscopy, up to and including the second follow-up examination (including adenomas detected during interim endoscopies).
(§2) For our statistical analyses, we compared proportions using Fisher's exact test, and measured data using t-tests or rank tests (Snedecor and Cochran, Statistical Methods, Seventh Edition, Ames: Iowa State University Press, 1980). […] To address the first issue, we used overdispersed log-linear quasi-likelihood models programmed in SPlus (Seattle) to provide unadjusted and adjusted estimates and confidence intervals for the relative risk of at least one recurrent adenoma (McCullagh and Nelder, Generalized Linear Models (Second Edition), Chapman-Hall, 1989). […] Co-variates included age (linear term), gender, the lifetime number of adenomas before study entry, clinical center, and the length of the surveillance interval. Possible interactions were considered using product interaction terms. Subgroup analyses included investigation of subjects above and below the median of the calorie-adjusted intake (Willet, Nutritional Epidemiology, Oxford University Press, 1990) of selected nutrients. […] All P-values were two-sided.

[1] = Description: as §1
At enrollment and at the time of each of the two follow-up colonoscopies, we obtained venous blood specimens in mineral-free tubes. Serum was initially stored at −20° C. or lower, pending shipment to Dartmouth for storage at −70° C. until analysis. At enrollment and the end of the study, we also assessed subjects' diet with a validated food frequency questionnaire (Block et al., Am. J. Epidemiol., 124:453-69, 1986). Every six months, we sent patients questionnaires regarding adherence to study agents; use of medications, over-the-counter drugs and nutritional supplements; and the occurrence of symptoms, illnesses, and hospitalizations. Recruitment into the study began in November 1988 and ended in April 1992. Follow-up ended in December 1996.
as §2

[2] = at least one endoscopy, study exams
[3] = at or before the first follow-up
[4] = calcium vs placebo, 913 subjects with at least one study colonoscopy
[5] = calcium vs placebo, completed the study, 2nd study interval
[6] = calcium vs placebo, completed the trial, first study interval
[7] = calcium vs placebo, second study interval
[8] = completed the study, 1st or 2nd study interval
[9] = completed the study, 1st study exam
[10] = completed the study, 2nd study exam
[11] = completed the study, 2nd study interval (main risk period)

## O=C([O-])[O-].[Ca+2] [calcium, calcium carbonate]
Colorectal adenomas; at least one endoscopy, 1st or 2nd interval
  Mean number of adenomas: 0.92
Colorectal adenomas; [2]
  % with one or more adenomas: 42.3%
  Mean number of adenomas: 0.86
Colorectal adenomas; [3]
  participants with an adenoma with severe atypia removed: one
  patients with invasive cancer: 2
Colorectal adenomas; calcium vs placebo, adjusted, completed the study (832 subjects), 2nd study interval
  Ratio of the mean number of adenomas: 0.76
Colorectal adenomas; [4]
  unadjusted ratio of the average numbers of adenomas: 0.74
  unadjusted risk ratio of at least one adenoma after randomization: 0.85
Colorectal adenomas; [5]
  unadjusted ratio of the average number of adenomas: 0.75
  unadjusted risk ratio for at least one adenoma: 0.83
Colorectal adenomas; [6]
  unadjusted ratio of the average numbers of adenomas: 0.73
  unadjusted risk ratio for at least one adenoma: 0.77
Colorectal adenomas; [7]
  unadjusted risk ratio for at least one adenoma 0.5 cm or greater versus no adenomas: 0.87
  unadjusted risk ratio, largest adenoma less than 0.5 cm versus no adenomas: 0.75
Colorectal adenomas; [8]
  % with one or more adenomas: 44.7%
  Mean number of adenomas: 0.98
Colorectal adenomas; [9]
  % with one or more adenomas: 24.4%
  Mean number of adenomas: 0.40
Colorectal adenomas; completed the study, 1st study interval
  Mean number of adenomas: 0.43
Colorectal adenomas; [10]
  % with one or more adenomas: 30.1%
  Mean number of adenomas: 0.51
Colorectal adenomas; completed the study, 2nd study interval
  mean size of the largest adenoma: 0.4 cm
Colorectal adenomas; [11]
  % with one or more adenomas: 31.1%
  Mean number of adenomas: 0.55
Colorectal adenomas; completed the study, 2nd study interval (main risk period), listed as CALCIUM
  % with one or more adenomas: 31.1%
Colorectal adenomas; completed the study, main risk period (2nd study interval)
  number of patients with at least one colorectal adenoma: 127
Colorectal adenomas; completed the trial, up to and including the first follow-up exam
  number of subjects with at least one adenoma: 103
Colorectal adenomas; during the main risk period
  adenomas with severe atypia removed: no adenomas with severe atypia were removed
  subjects with invasive large bowel cancer: 1
Colorectal adenomas; second study interval
  subjects whose largest adenoma was less than 0.5 cm: 70
  subjects with an adenoma 0.5 cm or greater: 57
Colorectal adenomas; subjects who completed the study (409 calcium), 1st study interval (randomization to first follow-up colonoscopy)
  % with one or more adenomas: 25%
Colorectal adenomas; subjects who completed the study (409 calcium), 1st study interval (randomization to first follow-up colonoscopy), listed as CALCIUM
  % with one or more adenomas: 25.2%
Colorectal adenomas; subjects who had at least one endoscopy (454 calcium), 1st or 2nd interval
  % with one or more adenomas: 43.2%
[1]; after randomization
  Hospitalized: All cancer, %: (3.2) %
  Hospitalized: Cardiac disease, %: (10.8) %
  Hospitalized: Gastrointestinal disease, %: (8.2) %
  Hospitalized: Other, %: (27.2) %
  Hospitalized: Stroke, %: (2.6) %
  Stopped treatment because of perceived toxicity, %: (2.6) %
  patients diagnosed with definite or probable urinary stones: Two
[1]; after randomization, any reason
  Subjects Hospitalized, %: (37.1) %
[1]; calcium supplementation during the trial, listed as calcium carbonate
  toxicity (in words): minimal
[1]; calcium vs placebo
  frequency of digestive symptoms (including constipation): did not differ materially
  medical complaints and complications (in words): not associated with treatment assignment

— patent US6488966B2, “Composition and method for reducing the risk of carcinogenesis” (The Trustees of Dartmouth College, priority 1998, dated 2002)
